Test results reported in patent publication US11680904B2, “Automated system for high-throughput all-optical dynamic electrophysiology” (The George Washington University, priority 2016, dated 2023).

How the values were obtained:
[1] = system: ChR2-CMs (neonatal rat ventricular CMs); assay type: cell-based
Procedure: (§1) Primary CMs were used through the study for all illustrative experiments with pharmacological treatments, mainly because at the current stage, they are perceived as more mature than the hiPSC-CMs and their response to drugs has been better documented. Briefly, neonatal (2-3 day old) SPRAGUE-DAWLEY® rats were sacrificed and ventricular tissue was removed per an approved Stony Brook University IACUC protocol. The tissue was digested overnight at 4° C. using 1 mg/mL trypsin (US BIOCHEMICALS®, Cleveland, Ohio) in Hanks' Balanced Salt Solution (HBSS, GIBCO® INVITROGEN™, Carlsbad, Calif.). The next morning, the tissue was serially digested using 1 mg/mL collagenase (WORTHINGTON BIOCHEMICAL®, Lakewood, N.J.) in HBSS at 37° C. and pipetted into conical tubes and placed on ice. After centrifugation, cells were re-suspended in culture medium M199 (GIBCO®) supplemented with […] L-glutamine (GIBCO®), 0.05 μg/mL penicillin-streptomycin (MEDIATECH CELLGRO™, Kansas City, Mo.), 0.2 μg/mL vitamin B12 (SIGMA ALDRICH®, St. Louis, Mo.), 10 mM HEPES (GIBCO®), 3.5 mg/mL D-(+)-glucose (SIGMA ALDRICH®), and 10% fetal bovine serum, FBS (GIBCO®). Fibroblasts were removed via a two-step pre-plating process, where the cell suspension was plated in a flask and incubated (37° C., 5% CO2) for 45-60 minutes and switched to a new flask and the incubation repeated. CMs were then counted using a hemocytometer prior to plating in glass-bottom 96-well plates (see Jia, Z. et al. Circulation. Arrhythmia and electrophysiology 4, 753-760, (2011) and Chung, C. Y., et al. J Cardiovasc Electrophysiol […], 1323-1329, (2007)).
Adenoviral delivery of ChR2(H134R) to primary CMs was performed in suspension (see Ambrosi, C. M. et al. Methods Mol Biol 1181, 215-228, (2014)). Briefly, the plasmid pcDNA3.1/hChR2(H134R)-EYFP was used (ADDGENE™, Cambridge, Mass.; deposited by Dr. K. Deisseroth) (see Zhang, F. et al. Nature 446, 633-639, (2007)), to develop an adenoviral construct (pBR322 backbone) with a ubiquitous CMV promoter. First-generation adenovirus was generated by homologous recombination of the Ad-CMV-ChR2-eYFP into pTG3604; further propagation and purification of the virus genomes was done by transfection into HEK293 cells and CsC1 banding. CMs were re-suspended in 2% FBS M199 after counting and diluted to 1.125×10^6 cells/mL and infected using an optimized MOI of 15 for two hours in an incubator (37° C., 5% CO2) with gentle agitation every 20 minutes. The MOI had been optimized during preliminary experiments to achieve >95% ChR2 expression in CMs within 48 hours using titer of 10^12 units/mL diluted in PBS, confirmed by eYFP reporter visualization and minimal cell death (by propidium iodide staining) (see Ambrosi, C. M., et al. Prog Biophys Mol Biol 115, 294-304, (2014) and Ambrosi, C. M. et al. Methods Mol Biol 1181, 215-228, (2014)). After two hours, the cell suspension was centrifuged and culture medium was removed and replaced with fresh 10% FBS M199 for plating (see Ambrosi, C. M. et al. Methods Mol Biol 1181, 215-228, (2014)).
Non-infected control CMs and ChR2-CM cells (for OptoHTS) were plated using a concentration of 1.125×10^6 cells/mL to achieve a plating density of 470,000 cells/cm^2. For CM/ChR2-HEK co-cultures, CMs at a concentration of 1.125×10^6 cells/mL were mixed in a conical with trypsinized ChR2-HEK cells, pre-diluted to achieve ratios 150:1 CM to ChR2-HEK. After centrifugation, the media was removed and the cells were re-suspended in fresh 10% FBS M199 to achieve the same density of plating as the control CMs.
All functional experiments were carried out 4-5 days after cell plating, at room temperature in Tyrode's solution containing the following (in mM): NaCl, 135; MgCl2, 1; KCl, 5.4; CaCl2, 1.5; NaH2PO4, 0.33; glucose, 5; and HEPES, 5 adjusted to pH 7.4 with NaOH (see Chung, C. Y., et al. J Cardiovasc Electrophysiol 18, 1323-1329, (2007)). […]

hiPS-CMs = assay: Optical calcium recording in hiPS-CMs (OptoDyCE); assay type: cell-based, human; conditions: 1 μM, 10 min
Procedure: Frozen human iPSC-derived CMs (ICELL® Cardiomyocytes^2 CMC-100-012-001, CELLULAR DYNAMICS INTERNATIONAL™, Madison, Wis.) were thawed per the manufacturer's instructions. The cells were plated at the recommended plating density of 156,000 cells/cm^2 on fibronectin-coated 96-well glass-bottom plates. In some experiments, cells were grown in three-dimensional microgrooved scaffolds. These fibronectin-coated PDMS (SYLGARD® 184, DOW CORNING®, Midland, Mich.) scaffolds with microtopographical features (see FIG. 16, panel “e,” peak-to-peak 120 μm, depth of 50 μm) were produced by molding onto metal templates fabricated by acoustic micromachining (see Entcheva, E. et al. Lab Chip 5, 179-183, (2005); Chung, C. Y. et al. FASEB journal: official publication of the Federation of American Societies for Experimental Biology 25, 851-862, (2011); and Chung, C. Y., et al. J Cardiovasc Electrophysiol 18, 1323-1329, (2007)); and small circular microgrooved scaffolds were punched-out and placed in the 96-well plates. […]
Optical recording of membrane voltage, Vm, was performed using the synthetic voltage-sensitive dye Di-4-ANBDQBS, spectrally-compatible with ChR2. […] Intracellular calcium, [Ca^2+]i, was recorded using QUEST RHOD-4™, AM diluted from a 0.5 mM stock solution dissolved in DMSO with 20% PLURONIC® to 10 μM in Tyrode's solution. […]

"spark"-ChR2-CMs = assay: sOptoHTS: all-optical electrophysiology of CMs sprinkled with "spark" ChR2-HEK cells; assay type: cell-based, rat
Procedure: as §1
The cell delivery approach employs “spark” cells (ChR2(H134R)-HEK293), a stable cell line showing near 100% expression of ChR2. “Spark” cells were developed by transfecting HEK293 cells (CRL-1573™ ATCC®, Manassas, Va.) with the ChR2 plasmid pcDNA3.1/hChR2(H134R)-EYFP using LIPOFECTAMINE® 2000 (INVITROGEN™, Carlsbad, Calif.). […]

## C[S+](C)[O-] [DMSO]
[1]
  effect on APD / electrophysiological measurements: not seen to affect the electrophysiological (EP) measurements

## CC(C)NCC(O)c1ccc(O)c(O)c1 (stereo not shown) [isoproterenol]
hiPS-CMs; quiescent hiPS-CMs
  calcium-mediated pacing activity in quiescent cells: calcium-mediated pacing activity was induced
hiPS-CMs; spontaneously beating hiPS-CMs
  rate of pacing in spontaneously beating cells: rate of pacing was accelerated

## COC(=O)C1=C(C)NC(C)=C(C(=O)OC)C1c1ccccc1[N+](=O)[O-] [nifedipine, Nifedipine]
[1]; optical pacing 1 Hz
  concentration of maximum APD shortening: around 1 μM
  concentration up to which CTD monotonically decreases: up to 10 μM

## CN(CCOc1ccc(NS(C)(=O)=O)cc1)CCc1ccc(NS(C)(=O)=O)cc1 [dofetilide, Dofetilide]
[1]; 0.02 μM, paced at 1 Hz, 0.539 mW/mm^2 10 ms light pulses
  calcium instability / spatial heterogeneity: localized spontaneous calcium release (SCR)
[1]; 2 μM, 1 Hz pacing, versus control, p<0.05 for APD50
  spatial variability in APD (dispersion of repolarization): increases spatial variability in APD
[1]; 2 μM, 2 Hz optical pacing
  effect on APD: APD prolongation
  voltage instabilities: alternans
[1]; at higher frequency, opposite to reverse-use dependence
  relative APD50 change versus pacing frequency: enhanced relative APD50 prolongation
"spark"-ChR2-CMs; 0.2 μM, paced at 1 Hz
  drug-induced AP variation, lower dose: sporadic EADs
"spark"-ChR2-CMs; 2 μM, paced 2 Hz
  drug-induced AP variation, higher dose: large temporal variability in AP morphology
"spark"-ChR2-CMs; optically paced samples, FIGS. 10A-10C
  early afterdepolarizations (EADs) versus dose: dose-dependent increase in EADs
